Assay results reported in patent US10294202B2, “Pyrrolidinones as herbicides” (FMC Corporation, priority 2013, dated 2019).

Columns and labels:
ragweed = experiment: Test A pre-/postemergence herbicide test; type: in vivo, Ambrosia elatior
Outline: (§1)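 Seeds in loam–sand blend received preemergence directed soil spray; separately, plants 2–10 cm at one- to two-leaf stage received postemergence spray, both with test chemicals in non-phytotoxic solvent with surfactant. After ~10 days in greenhouse, injury rated visually against untreated controls, 0 (no effect) to 100 (complete control).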

wheat = experiment: Test A pre-/postemergence herbicide test; type: in vivo, Triticum aestivum; settings: Postemergence
Outline: as §1

kochia = experiment: Test A pre-/postemergence herbicide test; type: in vivo, Kochia scoparia
Outline: as §1

barnyardgrass [1] = experiment: Test B flooded paddy test; type: in vivo, Echinochloa crus-galli; settings: Flood, scale of 0 to 100 where 0 is no effect and 100 is complete control
Outline: (§2)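 First, plants reach the 2-leaf stage; next, pots are flooded to 3 cm and compound is delivered into the water; finally, after 13 to 15 greenhouse days at constant depth, injury is graded visually from 0 to 100 against controls.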

ryegrass, Italian = experiment: Test A pre-/postemergence herbicide test; type: in vivo, Lolium multiflorum
Outline: as §1

pigweed = experiment: Test A pre-/postemergence herbicide test; type: in vivo, Amaranthus retroflexus
Outline: as §1

galium = experiment: Test A postemergence herbicide test; type: in vivo, Galium aparine
Outline: (§3)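 Blackgrass and galium grown in pots of loam soil–sand blend, treated postemergence at 2–10 cm height, one- to two-leaf stage. Plants kept in greenhouse ~10 days, then visually rated for injury against untreated controls on a 0–100 scale (0 no effect, 100 complete control).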

barnyardgrass [2] = experiment: Test A pre-/postemergence herbicide test; type: in vivo, Echinochloa crus-galli
Outline: as §1

blackgrass = experiment: Test A postemergence herbicide test; type: in vivo, Alopecurus myosuroides
Outline: as §3

rice = experiment: Test B flooded paddy test; type: in vivo, Oryza sativa; settings: Flood, scale of 0 to 100 where 0 is no effect and 100 is complete control
Outline: as §2

sedge, umbrella = experiment: Test B flooded paddy test; type: in vivo, Cyperus difformis; settings: Flood, scale of 0 to 100 where 0 is no effect and 100 is complete control
Outline: as §2

giant foxtail = experiment: Test A pre-/postemergence herbicide test; type: in vivo, Setaria faberii
Outline: as §1

ducksalad = experiment: Test B flooded paddy test; type: in vivo, Heteranthera limosa; settings: Flood, scale of 0 to 100 where 0 is no effect and 100 is complete control
Outline: as §2

corn = experiment: Test A pre-/postemergence herbicide test; type: in vivo, Zea mays; settings: Postemergence
Outline: as §1

[3] = Postemergence, 125 g ai/ha, visual rating on 0 to 100 scale (0 no effect, 100 complete control), approx. 10 days
[4] = Postemergence, 500 g ai/ha, 0 to 100 scale (0 no effect, 100 complete control)
[5] = Preemergence, 125 g ai/ha, 0 to 100 scale where 0 is no effect and 100 is complete control
[6] = Preemergence, 500 g ai/ha, visual rating on 0 to 100 scale (0 no effect, 100 complete control)
[7] = 125 g ai/ha, visual rating on 0 to 100 scale (0 no effect, 100 complete control), approx. 10 days
[8] = 500 g ai/ha, 0 to 100 scale (0 no effect, 100 complete control)
[9] = 125 g ai/ha, visual rating, 0 to 100 scale, 0 no effect, 100 complete control, approximately 10 days, preemergence
[10] = Postemergence, 125 g ai/ha, 0 to 100 scale, 0 is no effect, 100 is complete control
[11] = preemergence, 500 g ai/ha, 0 to 100 scale, 0 is no effect and 100 is complete control
[12] = 125 g ai/ha, 0 to 100 scale, 0 is no effect, 100 is complete control

## CCN1CC(c2ccc(C(F)(F)F)cc2)C(C(=O)Nc2ccccc2F)C1=O (stereo not drawn) [Compound 335]
ragweed; [3]
  Plant response rating, Ragweed: 0
ragweed; [4]
  Plant response rating, Ragweed: 0
ragweed; [5]
  Plant response rating, Ragweed: 0
ragweed; [6]
  Ragweed plant response rating: 0
wheat; [7]
  Plant response rating, Wheat: 0
wheat; [8]
  Plant response rating, Wheat: 20
kochia; [3]
  Plant response rating, Kochia: 0
kochia; [4]
  Plant response rating, Kochia: 0
kochia; [5]
  Plant response rating, Kochia: 40
kochia; [6]
  Kochia plant response rating: 60
Barnyardgrass [1]; 500 g ai/ha
  Plant response rating, Barnyardgrass: 0
ryegrass, Italian; [3]
  Plant response rating, Ryegrass, Italian: 0
ryegrass, Italian; [4]
  Plant response rating, Ryegrass, Italian: 0
ryegrass, Italian; [5]
  Plant response rating, Ryegrass, Italian: 0
ryegrass, Italian; [6]
  Ryegrass, Italian plant response rating: 0
pigweed; [3]
  Plant response rating, Pigweed: 0
pigweed; [4]
  Plant response rating, Pigweed: 0
pigweed; [5]
  Plant response rating, Pigweed: 0
pigweed; [6]
  Pigweed plant response rating: 30
galium; [7]
  Plant response rating, Galium: 0
galium; [8]
  Plant response rating, Galium: 0
Barnyardgrass [2]; [3]
  Plant response rating, Barnyardgrass: 20
Barnyardgrass [2]; [4]
  Plant response rating, Barnyardgrass: 60
Barnyardgrass [2]; [5]
  Plant response rating, Barnyardgrass: 0
Barnyardgrass [2]; [6]
  Barnyardgrass plant response rating: 50
blackgrass; [7]
  Plant response rating, Blackgrass: 0
blackgrass; [8]
  Plant response rating, Blackgrass: 20
rice; 500 g ai/ha
  Plant response rating, Rice: 0
sedge, umbrella; 500 g ai/ha
  Plant response rating, Sedge, Umbrella: 0
Giant foxtail; [3]
  Plant response rating, Foxtail, Giant: 70
Giant foxtail; [4]
  Plant response rating, Foxtail, Giant: 90
Giant foxtail; [5]
  Plant response rating, Foxtail, Giant: 70
Giant foxtail; [6]
  Foxtail, Giant plant response rating: 90
ducksalad; 500 g ai/ha
  Plant response rating, Ducksalad: 65
corn; [7]
  Plant response rating, Corn: 0
corn; [8]
  Plant response rating, Corn: 0

## CCCN1CC(c2ccc(C(F)(F)F)cc2)C(C(=O)Nc2ccccc2F)C1=O (stereo not drawn) [Compound 181]
ragweed; [9]
  Plant response rating, Ragweed: 0
ragweed; [10]
  Plant response rating, Ragweed: 0
ragweed; Postemergence, 500 g ai/ha
  Ragweed plant response rating (0 to 100 scale, 0 is no effect, 100 is complete control): 0
ragweed; [11]
  Plant response rating, Ragweed: 0
wheat; [12]
  Plant response rating, Wheat: 0
wheat; 500 g ai/ha
  Wheat plant response rating (0 to 100 scale, 0 is no effect, 100 is complete control): 0
kochia; [9]
  Plant response rating, Kochia: 50
kochia; [10]
  Plant response rating, Kochia: 10
kochia; Postemergence, 500 g ai/ha
  Kochia plant response rating (0 to 100 scale, 0 is no effect, 100 is complete control): 70
kochia; [11]
  Plant response rating, Kochia: 80
Barnyardgrass [1]; 500 g ai/ha
  Plant response rating, Barnyardgrass: 0
ryegrass, Italian; [9]
  Plant response rating, Ryegrass, Italian: 0
ryegrass, Italian; [10]
  Plant response rating, Ryegrass, Italian: 0
ryegrass, Italian; Postemergence, 500 g ai/ha
  Ryegrass, Italian plant response rating (0 to 100 scale, 0 is no effect, 100 is complete control): 0
ryegrass, Italian; [11]
  Plant response rating, Ryegrass, Italian: 0
pigweed; [9]
  Plant response rating, Pigweed: 0
pigweed; [10]
  Plant response rating, Pigweed: 0
pigweed; Postemergence, 500 g ai/ha
  Pigweed plant response rating (0 to 100 scale, 0 is no effect, 100 is complete control): 50
pigweed; [11]
  Plant response rating, Pigweed: 0
galium; [12]
  Plant response rating, Galium: 0
galium; 500 g ai/ha
  Galium plant response rating (0 to 100 scale, 0 is no effect, 100 is complete control): 0
Barnyardgrass [2]; [9]
  Plant response rating, Barnyardgrass: 0
Barnyardgrass [2]; [10]
  Plant response rating, Barnyardgrass: 0
Barnyardgrass [2]; Postemergence, 500 g ai/ha
  Barnyardgrass plant response rating (0 to 100 scale, 0 is no effect, 100 is complete control): 0
Barnyardgrass [2]; [11]
  Plant response rating, Barnyardgrass: 0
blackgrass; [12]
  Plant response rating, Blackgrass: 40
blackgrass; 500 g ai/ha
  Blackgrass plant response rating (0 to 100 scale, 0 is no effect, 100 is complete control): 50
rice; 500 g ai/ha
  Plant response rating, Rice: 0
sedge, umbrella; 500 g ai/ha
  Plant response rating, Sedge, Umbrella: 0
Giant foxtail; [9]
  Plant response rating, Foxtail, Giant: 10
Giant foxtail; [10]
  Plant response rating, Foxtail, Giant: 0
Giant foxtail; Postemergence, 500 g ai/ha
  Foxtail, Giant plant response rating (0 to 100 scale, 0 is no effect, 100 is complete control): 0
Giant foxtail; [11]
  Plant response rating, Foxtail, Giant: 70
ducksalad; 500 g ai/ha
  Plant response rating, Ducksalad: 0
corn; [12]
  Plant response rating, Corn: 0
corn; 500 g ai/ha
  Corn plant response rating (0 to 100 scale, 0 is no effect, 100 is complete control): 0

## O=C1NCC(c2cccc(S(F)(F)(F)(F)F)c2)C1C(=O)Nc1cccc(F)c1F (stereo not drawn) [Compound 214]
ragweed; [9]
  Plant response rating, Ragweed: 0
ragweed; [10]
  Plant response rating, Ragweed: 0
ragweed; Postemergence, 500 g ai/ha
  Ragweed plant response rating (0 to 100 scale, 0 is no effect, 100 is complete control): 0
ragweed; [11]
  Plant response rating, Ragweed: 0
wheat; [12]
  Plant response rating, Wheat: 0
wheat; 500 g ai/ha
  Wheat plant response rating (0 to 100 scale, 0 is no effect, 100 is complete control): 50
kochia; [9]
  Plant response rating, Kochia: 0
kochia; [10]
  Plant response rating, Kochia: 0
kochia; Postemergence, 500 g ai/ha
  Kochia plant response rating (0 to 100 scale, 0 is no effect, 100 is complete control): 40
kochia; [11]
  Plant response rating, Kochia: 80
Barnyardgrass [1]; 1000 g ai/ha
  Plant response rating, Barnyardgrass: 75
ryegrass, Italian; [9]
  Plant response rating, Ryegrass, Italian: 0
ryegrass, Italian; [10]
  Plant response rating, Ryegrass, Italian: 10
ryegrass, Italian; Postemergence, 500 g ai/ha
  Ryegrass, Italian plant response rating (0 to 100 scale, 0 is no effect, 100 is complete control): 30
ryegrass, Italian; [11]
  Plant response rating, Ryegrass, Italian: 0
pigweed; [9]
  Plant response rating, Pigweed: 0
pigweed; [10]
  Plant response rating, Pigweed: 0
pigweed; Postemergence, 500 g ai/ha
  Pigweed plant response rating (0 to 100 scale, 0 is no effect, 100 is complete control): 50
pigweed; [11]
  Plant response rating, Pigweed: 70
galium; [12]
  Plant response rating, Galium: 40
galium; 500 g ai/ha
  Galium plant response rating (0 to 100 scale, 0 is no effect, 100 is complete control): 70
Barnyardgrass [2]; [9]
  Plant response rating, Barnyardgrass: 70
Barnyardgrass [2]; [10]
  Plant response rating, Barnyardgrass: 60
Barnyardgrass [2]; Postemergence, 500 g ai/ha
  Barnyardgrass plant response rating (0 to 100 scale, 0 is no effect, 100 is complete control): 70
Barnyardgrass [2]; [11]
  Plant response rating, Barnyardgrass: 80
blackgrass; [12]
  Plant response rating, Blackgrass: 40
blackgrass; 500 g ai/ha
  Blackgrass plant response rating (0 to 100 scale, 0 is no effect, 100 is complete control): 70
rice; 1000 g ai/ha
  Plant response rating, Rice: 20
sedge, umbrella; 1000 g ai/ha
  Plant response rating, Sedge, Umbrella: 0
Giant foxtail; [9]
  Plant response rating, Foxtail, Giant: 80
Giant foxtail; [10]
  Plant response rating, Foxtail, Giant: 80
Giant foxtail; Postemergence, 500 g ai/ha
  Foxtail, Giant plant response rating (0 to 100 scale, 0 is no effect, 100 is complete control): 90
Giant foxtail; [11]
  Plant response rating, Foxtail, Giant: 90
ducksalad; 1000 g ai/ha
  Plant response rating, Ducksalad: 90
corn; [12]
  Plant response rating, Corn: 30
corn; 500 g ai/ha
  Corn plant response rating (0 to 100 scale, 0 is no effect, 100 is complete control): 50

## O=C1NCC(c2cccc(C(F)(F)F)c2)C1C(=O)Nc1cc(F)ccc1F (stereo not drawn) [Compound 314]
ragweed; [3]
  Plant response rating, Ragweed: 0
ragweed; [4]
  Plant response rating, Ragweed: 0
ragweed; [5]
  Plant response rating, Ragweed: 0
ragweed; [6]
  Ragweed plant response rating: 0
wheat; [7]
  Plant response rating, Wheat: 0
wheat; [8]
  Plant response rating, Wheat: 0
kochia; [3]
  Plant response rating, Kochia: 0
kochia; [4]
  Plant response rating, Kochia: 0
kochia; [5]
  Plant response rating, Kochia: 0
kochia; [6]
  Kochia plant response rating: 0
Barnyardgrass [1]; 500 g ai/ha
  Plant response rating, Barnyardgrass: 25
ryegrass, Italian; [3]
  Plant response rating, Ryegrass, Italian: 0
ryegrass, Italian; [4]
  Plant response rating, Ryegrass, Italian: 0
ryegrass, Italian; [5]
  Plant response rating, Ryegrass, Italian: 0
ryegrass, Italian; [6]
  Ryegrass, Italian plant response rating: 0
pigweed; [3]
  Plant response rating, Pigweed: 0
pigweed; [4]
  Plant response rating, Pigweed: 0
pigweed; [5]
  Plant response rating, Pigweed: 0
pigweed; [6]
  Pigweed plant response rating: 0
galium; [7]
  Plant response rating, Galium: 0
galium; [8]
  Plant response rating, Galium: 0
Barnyardgrass [2]; [3]
  Plant response rating, Barnyardgrass: 30
Barnyardgrass [2]; [4]
  Plant response rating, Barnyardgrass: 80
Barnyardgrass [2]; [5]
  Plant response rating, Barnyardgrass: 20
Barnyardgrass [2]; [6]
  Barnyardgrass plant response rating: 80
blackgrass; [7]
  Plant response rating, Blackgrass: 0
blackgrass; [8]
  Plant response rating, Blackgrass: 0
rice; 500 g ai/ha
  Plant response rating, Rice: 15
sedge, umbrella; 500 g ai/ha
  Plant response rating, Sedge, Umbrella: 0
Giant foxtail; [3]
  Plant response rating, Foxtail, Giant: 60
Giant foxtail; [4]
  Plant response rating, Foxtail, Giant: 80
Giant foxtail; [5]
  Plant response rating, Foxtail, Giant: 30
Giant foxtail; [6]
  Foxtail, Giant plant response rating: 90
ducksalad; 500 g ai/ha
  Plant response rating, Ducksalad: 40
corn; [7]
  Plant response rating, Corn: 0
corn; [8]
  Plant response rating, Corn: 0
